Source: PubChem BioAssay (NCI)
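Tested at 5 concentrations; 48 h exposure; 96-well plates; endpoints linearly interpolated, else capped at highest concentration. The concentration for full growth arrest is given as TGI.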

Legend:
Test in all cases: growth of human tumour cells (NCI), 48 h
[1] = system: SF-295 CNS
[2] = system: SNB-19 CNS
[3] = system: T-47D breast
[4] = system: SK-MEL-2 melanoma
[5] = system: IGROV1 ovarian
[6] = system: OVCAR-8 ovarian
[7] = system: K-562 leukemia
[8] = system: HT29 colon
[9] = system: OVCAR-4 ovarian
[10] = system: BT-549 breast
[11] = system: A549 NSCLC
[12] = system: MDA-MB-231 breast
[13] = system: RXF 393 renal
[14] = system: MDA-N
[15] = system: SK-MEL-5 melanoma
[16] = system: U251 CNS
[17] = system: TK-10 renal
[18] = system: SR leukemia
[19] = system: NCI/ADR-RES ovarian
[20] = system: SK-MEL-28 melanoma
[21] = system: UO-31 renal
[22] = system: HL-60(TB) leukemia
[23] = system: SW-620 colon
[24] = system: M14 melanoma
[25] = system: SF-268 CNS
[26] = system: HOP-62 NSCLC
[27] = system: LOX IMVI melanoma
[28] = system: NCI-H23 lung
[29] = system: KM12 colon
[30] = system: SK-OV-3 ovarian
[31] = system: ACHN renal
[32] = system: CCRF-CEM leukemia
[33] = system: NCI-H522 lung
[34] = system: OVCAR-3 ovarian
[35] = system: EKVX NSCLC
[36] = system: OVCAR-5 ovarian
[37] = system: SN12C renal
[38] = system: PC-3 prostate
[39] = system: NCI-H226 lung
[40] = system: A498 renal
[41] = system: HOP-92 NSCLC
[42] = system: COLO 205 colon
[43] = system: UACC-62 melanoma
[44] = system: MALME-3M melanoma
[45] = system: MOLT-4 leukemia
[46] = system: HCT-15 colon
[47] = system: RPMI-8226 leukemia
[48] = system: SNB-75 CNS
[49] = system: MCF7 breast
[50] = system: DU-145 prostate
[51] = system: HS 578T breast
[52] = system: 786-0 renal
[53] = system: UACC-257 melanoma
[54] = system: HCT-116 colon
[55] = system: MDA-MB-435
[56] = system: CAKI-1 renal
[57] = system: SF-539 CNS
[58] = system: NCI-H460 lung
[59] = system: HCC-2998 colon

Measured: TGI

CN(C)C1C(=O)C(C(=O)NCN2CCCC2)=C(O)C2(O)C(=O)C3=C(O)c4c(O)cccc4C(C)(O)C3CC12 (configuration not stated)
48.7 µM: [44]
not listed: [57] | [58] | [59]
> 100 µM: all other assays above

COCOc1cc(OCOC)cc(C(=O)Oc2ccccc2)c1
not listed: [32]
> 100 µM: all other assays above

CC#CC#C/C=C1/O[C@]2(CCC(OC(=O)CC(C)C)CO2)[C@@H]2O[C@H]12 (some centres not stated)
84.3 µM: [35]
54.3 µM: [14]
49.3 µM: [52]
64.4 µM: [19]
42.2 µM: [13]
47.7 µM: [24] | [44]
62.7 µM: [12]
42.9 µM: [22]
61.3 µM: [17]
66.6 µM: [43]
44.7 µM: [31]
50.3 µM: [47]
54.6 µM: [16] | [45]
36.5 µM: [21]
54.1 µM: [25]
33.3 µM: [54]
35.4 µM: [8]
37.4 µM: [33]
66 µM: [41]
60 µM: [28]
53.1 µM: [46]
27.5 µM: [32]
41.2 µM: [37]
37.5 µM: [59]
48.3 µM: [3]
52.3 µM: [34]
72.9 µM: [36]
56.3 µM: [10]
43.7 µM: [23]
72.5 µM: [38]
52.5 µM: [4]
35.9 µM: [27]
60.4 µM: [55]
34.7 µM: [56]
not listed: [1] | [15] | [20] | [39] | [42] | [57]
> 100 µM: all other assays above
